Key:
[1] = test system: brain mitochondria; test: Mitochondria swelling assay in response to Ca2+; set-up: species or system mice; details: for calcium-mediated mitochondrial swelling: with calcium
Protocol: Brain from mice without white matter was used for mitochondrial isolation. Brain was homogenized in 9 ml of ice-cold EB buffer (1 mmol EDTA, 1-6 mg/ml BSA) using a Dounce homogenizer until no particles could be seen. Homogenates were centrifuged at 1300×g for 5 minutes. Supernatant from this fraction was carefully laid on top of a 15% PERCOLL solution (10 ml) and then centrifuged at 16000 RPM for 10 minutes. The pellet was carefully mixed with 9 ml of mitochondrial buffer (4.098% D-mannitol, 2.56% sucrose, 0.034% K2HPO4, pH 7.3-7.4) and 200 μl of 1% digitonin. After 5 minutes incubation on ice, the mixture was centrifuged at 8000 RPM for 10 minutes. Mitochondrial pellet was washed once with mitochondrial buffer. Subsequently, the mitochondrial pellet was resuspended in 100 μl of mitochondrial buffer and was used for further experiments.
A proper amount of mitochondria was resuspended into 1 ml swelling assay buffer (150 mM KCl, 2 mM KH2PO4, 10 mM HEPES, pH 7.4) and energized by 1 mM glutamate and 1 mM malate. Calcium at varying concentrations was added into the assay buffer to trigger mitochondrial swelling. Mitochondrial permeability transition was determined by studying the rate of change in absorbance at 540 nm via a spectrophotometer.
Given that the Compounds 4, 8 and 15 could inhibit ABAD activity, it was determined whether these same compounds could decrease mitochondrial permeability transition pore (mPTP) formation.

[2] = test system: SK-N-SH cells; test: Mitochondrial cytochrome c oxidase (CcO) activity in Aβ-treated cells; format: cell-based; details: for CcO activity, inhibitor alone: 1 μM inhibitor without Aβ; for CcO activity: 5 μM oligomer Aβ1-42 plus 1 μM inhibitor, 48 hours
Protocol: SK-NSH cells were treated with 5 μM oligomer Aβ plus 1 μM of ABAD inhibitor; inhibitor alone; vehicle (VEH) without inhibitor; or Aβ alone. Forty-eight hour later, CcO activity (μmol protein mg^−1 min^−1) was measured in cell lysates.
The CcO activity was measured according to known methods (Du, et al. (2008) Nat. Med. 14:1097-105) with a cytochrome c oxidase kit (Sigma). In brief, SK-N-SH cells were incubated with ABAD inhibitor and oligomer Aβ for 48 hours. After washing the cells twice with PBS, the cells were collected and concentration was determined by the Bradford method. A suitable volume of cells and enzyme solution was added to 475 μl assay buffer. The reaction was triggered by the addition of 25 μl freshly prepared ferrocytochrome C substrate solution into the cuvette. Changes in OD550 nm were recorded immediately with an Amersham Biosciences ULTROSPECT 3100 pro spectrophotometer.
To assess the effect of ABAD inhibitor on Aft-induced mitochondrial respiratory function, CcO activity was determined.

[3] = test system: ABAD; format: biochemical
Protocol: Before the assay, all the assay components except SAAC were pre-incubated for 5 minutes, and the reaction started with the addition of SAAC into the reaction mix. The reaction was carried out for a total 6 minutes at room temperature under steady-state conditions, and the decrease of NADH absorbance at 340 nm was determined every 10 seconds. Kinetic data were analyzed by PRISM (Scitech, San Diego, Calif.) to determine IC50 values and Ki. One unit of enzyme activity was defined as that which converted 1.0 μmol of substrate to product per minute.

For `COc1ccc2nc(N[C@@H](c3ccc(O)cc3)P(=O)(OC)OC)sc2c1` (racemic) [Compound 8, Dimethyl ((4-hydroxyphenyl)((6-methoxybenzo[d]thiazol-2-yl)amino)methyl)phosphonate], the calcium-mediated mitochondrial swelling [1] was “antagonized calcium-mediated mitochondrial swelling”, the “mitochondrial swelling without calcium” value [1] was “did not affect mitochondrial swelling” and the “CcO activity, inhibitor alone” value [2] was “had no effect on CcO activity”. For the same molecule, the CcO activity [2] was “reversed the Aβ-mediated decrease of CcO activity”.
`COC(=O)c1cc([C@H](Nc2nc3ccc(OC)cc3s2)P(=O)(OC)OC)ccc1O` [Compound 4, Methyl 5-((dimethoxyphosphoryl)((6-methoxybenzo[d]thiazol-2-yl)amino)methyl)-2-hydroxybenzoate] was tested, and the calcium-mediated mitochondrial swelling [1] was “antagonized calcium-mediated mitochondrial swelling”, the “mitochondrial swelling without calcium” value [1] was “did not affect mitochondrial swelling” and the “inhibitory effect on SAAC reduction by ABAD” value [3] was “modest inhibitory effect”. The “CcO activity, inhibitor alone” value [2] was “had no effect on CcO activity” and the CcO activity [2] was “reversed the Aβ-mediated decrease of CcO activity”.

From patent US9738668B2
